Measured values as given in the NIST ThermoML archive (doi:10.1016/j.jct.2017.11.017).
Numbers after ± are expanded uncertainties. One block for each compound: values may come before it.

Assay: activity coefficient (dimensionless); of the first substance listed, at infinite dilution; xn = mol fraction of the nth substance listed
Details: 101.33 kPa, Liquid, Chromatography, x1 = 0

SMILES: CCOC(C)=O [ethyl acetate] + C[n+]1ccn(CCCO)c1.N#CN=C=[N-]
activity coefficient (318.15 K): 5.72 ± 0.39
activity coefficient (328.15 K): 5.95 ± 0.41
activity coefficient (338.15 K): 6.18 ± 0.42
activity coefficient (348.15 K): 6.36 ± 0.43
activity coefficient (358.15 K): 6.61 ± 0.45
activity coefficient (368.15 K): 6.86 ± 0.47

SMILES: CCc1ccccc1 [ethylbenzene] + C[N+]1(CCCO)CCOCC1.N#C[N-]C#N
activity coefficient (318.15 K): 26.4 ± 1.8
activity coefficient (328.15 K): 26.3 ± 1.8
activity coefficient (338.15 K): 26.3 ± 1.8
activity coefficient (348.15 K): 26.2 ± 1.8
activity coefficient (358.15 K): 26.2 ± 1.8
activity coefficient (368.15 K): 26.2 ± 1.8

SMILES: CCc1ccccc1 [ethylbenzene] + C[n+]1ccn(CCCO)c1.N#CN=C=[N-]
activity coefficient (318.15 K): 14.6 ± 1
activity coefficient (328.15 K): 14.9 ± 1
activity coefficient (338.15 K): 15.3 ± 1
activity coefficient (348.15 K): 15.5 ± 1.1
activity coefficient (358.15 K): 15.9 ± 1.1
activity coefficient (368.15 K): 16.1 ± 1.1

SMILES: CCCCCCC [heptane] + C[N+]1(CCCO)CCOCC1.N#C[N-]C#N
activity coefficient (298.15 K): 1540 ± 110
activity coefficient (308.15 K): 1290 ± 89

SMILES: CCCCCCC [heptane] + C[n+]1ccn(CCCO)c1.N#CN=C=[N-]
activity coefficient (298.15 K): 562 ± 39
activity coefficient (308.15 K): 504 ± 35
activity coefficient (318.15 K): 447 ± 31
activity coefficient (328.15 K): 402 ± 28
activity coefficient (338.15 K): 366 ± 25
activity coefficient (348.15 K): 334 ± 23
activity coefficient (358.15 K): 306 ± 21

activity coefficient (298.15 K): 123 ± 8
activity coefficient (308.15 K): 116 ± 8
activity coefficient (318.15 K): 109 ± 7
activity coefficient (328.15 K): 102 ± 7
activity coefficient (338.15 K): 97.5 ± 6.7
activity coefficient (348.15 K): 92.5 ± 6.3
activity coefficient (358.15 K): 89 ± 6.1
SMILES: C=CCCCC [hex-1-ene] + C[n+]1ccn(CCCO)c1.N#CN=C=[N-]

activity coefficient (298.15 K): 357 ± 25
activity coefficient (308.15 K): 319 ± 22
activity coefficient (318.15 K): 286 ± 20
activity coefficient (328.15 K): 257 ± 18
activity coefficient (338.15 K): 233 ± 16
SMILES: CCCCCC [hexane] + C[n+]1ccn(CCCO)c1.N#CN=C=[N-]

SMILES: CC(C)c1ccccc1 [isopropylbenzene] + C[N+]1(CCCO)CCOCC1.N#C[N-]C#N
activity coefficient (318.15 K): 52.5 ± 3.6
activity coefficient (328.15 K): 51.2 ± 3.5
activity coefficient (338.15 K): 50.3 ± 3.4
activity coefficient (348.15 K): 49.2 ± 3.4
activity coefficient (358.15 K): 48.4 ± 3.3
activity coefficient (368.15 K): 47.5 ± 3.3

SMILES: CC(C)c1ccccc1 [isopropylbenzene] + C[n+]1ccn(CCCO)c1.N#CN=C=[N-]
activity coefficient (318.15 K): 25.8 ± 1.8
activity coefficient (328.15 K): 26.2 ± 1.8
activity coefficient (338.15 K): 26.6 ± 1.8
activity coefficient (348.15 K): 26.8 ± 1.8
activity coefficient (358.15 K): 27.1 ± 1.9
activity coefficient (368.15 K): 27.4 ± 1.9

SMILES: CO [methanol] + C[N+]1(CCCO)CCOCC1.N#C[N-]C#N
activity coefficient (318.15 K): 0.753 ± 0.05
activity coefficient (328.15 K): 0.763 ± 0.05
activity coefficient (338.15 K): 0.771 ± 0.05
activity coefficient (348.15 K): 0.778 ± 0.051
activity coefficient (358.15 K): 0.788 ± 0.051
activity coefficient (368.15 K): 0.791 ± 0.051

SMILES: CO [methanol] + C[n+]1ccn(CCCO)c1.N#CN=C=[N-]
activity coefficient (318.15 K): 0.63 ± 0.04
activity coefficient (328.15 K): 0.64 ± 0.04
activity coefficient (338.15 K): 0.654 ± 0.045
activity coefficient (348.15 K): 0.66 ± 0.05
activity coefficient (358.15 K): 0.679 ± 0.046
activity coefficient (368.15 K): 0.69 ± 0.05

SMILES: CCCC(=O)OC [methyl butanoate] + C[N+]1(CCCO)CCOCC1.N#C[N-]C#N
activity coefficient (318.15 K): 15.8 ± 1.1
activity coefficient (328.15 K): 15.9 ± 1.1
activity coefficient (338.15 K): 16.1 ± 1.1
activity coefficient (348.15 K): 16.2 ± 1.1
activity coefficient (358.15 K): 16.3 ± 1.1
activity coefficient (368.15 K): 16.5 ± 1.1

SMILES: CCCC(=O)OC [methyl butanoate] + C[n+]1ccn(CCCO)c1.N#CN=C=[N-]
activity coefficient (318.15 K): 9.03 ± 0.62
activity coefficient (328.15 K): 9.36 ± 0.64
activity coefficient (338.15 K): 9.67 ± 0.66
activity coefficient (348.15 K): 9.96 ± 0.68
activity coefficient (358.15 K): 10.3 ± 0.7
activity coefficient (368.15 K): 10.6 ± 0.7

SMILES: COC(C)=O [methyl ethanoate] + C[N+]1(CCCO)CCOCC1.N#C[N-]C#N
activity coefficient (318.15 K): 4.31 ± 0.29
activity coefficient (328.15 K): 4.41 ± 0.3
activity coefficient (338.15 K): 4.54 ± 0.31
activity coefficient (348.15 K): 4.64 ± 0.32
activity coefficient (358.15 K): 4.77 ± 0.33
activity coefficient (368.15 K): 4.89 ± 0.33

SMILES: COC(C)=O [methyl ethanoate] + C[n+]1ccn(CCCO)c1.N#CN=C=[N-]
activity coefficient (318.15 K): 3.07 ± 0.21
activity coefficient (328.15 K): 3.21 ± 0.22
activity coefficient (338.15 K): 3.35 ± 0.23
activity coefficient (348.15 K): 3.5 ± 0.24
activity coefficient (358.15 K): 3.64 ± 0.25
activity coefficient (368.15 K): 3.8 ± 0.26

SMILES: CCC(=O)OC [methyl propanoate] + C[N+]1(CCCO)CCOCC1.N#C[N-]C#N
activity coefficient (318.15 K): 8.18 ± 0.56
activity coefficient (328.15 K): 8.35 ± 0.57
activity coefficient (338.15 K): 8.51 ± 0.58
activity coefficient (348.15 K): 8.7 ± 0.59
activity coefficient (358.15 K): 8.81 ± 0.6
activity coefficient (368.15 K): 9.01 ± 0.61

SMILES: CCC(=O)OC [methyl propanoate] + C[n+]1ccn(CCCO)c1.N#CN=C=[N-]
activity coefficient (318.15 K): 5.29 ± 0.36
activity coefficient (328.15 K): 5.48 ± 0.37
activity coefficient (338.15 K): 5.73 ± 0.39
activity coefficient (348.15 K): 5.92 ± 0.4
activity coefficient (358.15 K): 6.14 ± 0.42
activity coefficient (368.15 K): 6.34 ± 0.43

SMILES: CC1CCCCC1 [methylcyclohexane] + C[N+]1(CCCO)CCOCC1.N#C[N-]C#N
activity coefficient (298.15 K): 865 ± 60
activity coefficient (308.15 K): 654 ± 45
activity coefficient (318.15 K): 508 ± 35
activity coefficient (328.15 K): 404 ± 28
activity coefficient (338.15 K): 321 ± 22

SMILES: CC1CCCCC1 [methylcyclohexane] + C[n+]1ccn(CCCO)c1.N#CN=C=[N-]
activity coefficient (298.15 K): 207 ± 14
activity coefficient (308.15 K): 187 ± 13
activity coefficient (318.15 K): 169 ± 12
activity coefficient (328.15 K): 154 ± 11
activity coefficient (338.15 K): 141 ± 10
activity coefficient (348.15 K): 131 ± 9
activity coefficient (358.15 K): 121 ± 8

SMILES: CCCCCCCCC [nonane] + C[N+]1(CCCO)CCOCC1.N#C[N-]C#N
activity coefficient (308.15 K): 2260 ± 160
activity coefficient (318.15 K): 1870 ± 130
activity coefficient (328.15 K): 1570 ± 110
activity coefficient (338.15 K): 1340 ± 92
activity coefficient (348.15 K): 1160 ± 80
activity coefficient (358.15 K): 994 ± 69
activity coefficient (368.15 K): 867 ± 60

SMILES: CCCCCCCCC [nonane] + C[n+]1ccn(CCCO)c1.N#CN=C=[N-]
activity coefficient (298.15 K): 1360 ± 94
activity coefficient (308.15 K): 1200 ± 83
activity coefficient (318.15 K): 1070 ± 74
activity coefficient (328.15 K): 955 ± 66
activity coefficient (338.15 K): 863 ± 59
activity coefficient (348.15 K): 780 ± 54
activity coefficient (358.15 K): 722 ± 50

SMILES: C=CCCCCCC [oct-1-ene] + C[N+]1(CCCO)CCOCC1.N#C[N-]C#N
activity coefficient (298.15 K): 1170 ± 81
activity coefficient (308.15 K): 937 ± 65
activity coefficient (318.15 K): 764 ± 53
activity coefficient (328.15 K): 635 ± 44
activity coefficient (338.15 K): 534 ± 37
activity coefficient (348.15 K): 453 ± 31

SMILES: C=CCCCCCC [oct-1-ene] + C[n+]1ccn(CCCO)c1.N#CN=C=[N-]
activity coefficient (298.15 K): 358 ± 25
activity coefficient (308.15 K): 331 ± 23
activity coefficient (318.15 K): 305 ± 21
activity coefficient (328.15 K): 282 ± 19
activity coefficient (338.15 K): 263 ± 18
activity coefficient (348.15 K): 245 ± 17
activity coefficient (358.15 K): 234 ± 16

SMILES: CCCCCCCC [octane] + C[N+]1(CCCO)CCOCC1.N#C[N-]C#N
activity coefficient (298.15 K): 2070 ± 140
activity coefficient (308.15 K): 1730 ± 120
activity coefficient (318.15 K): 1460 ± 100
activity coefficient (328.15 K): 1260 ± 87
activity coefficient (338.15 K): 1090 ± 75

SMILES: CCCCCCCC [octane] + C[n+]1ccn(CCCO)c1.N#CN=C=[N-]
activity coefficient (298.15 K): 881 ± 61
activity coefficient (308.15 K): 779 ± 54
activity coefficient (318.15 K): 698 ± 48
activity coefficient (328.15 K): 626 ± 43
activity coefficient (338.15 K): 560 ± 39
activity coefficient (348.15 K): 509 ± 35
activity coefficient (358.15 K): 465 ± 32

SMILES: CCCCCO [pentan-1-ol] + C[N+]1(CCCO)CCOCC1.N#C[N-]C#N
activity coefficient (318.15 K): 7.75 ± 0.53
activity coefficient (328.15 K): 7.49 ± 0.51
activity coefficient (338.15 K): 7.26 ± 0.5
activity coefficient (348.15 K): 7.11 ± 0.48
activity coefficient (358.15 K): 6.88 ± 0.47
activity coefficient (368.15 K): 6.76 ± 0.46

SMILES: CCCCCO [pentan-1-ol] + C[n+]1ccn(CCCO)c1.N#CN=C=[N-]
activity coefficient (318.15 K): 4.16 ± 0.28
activity coefficient (328.15 K): 4.14 ± 0.28
activity coefficient (338.15 K): 4.1 ± 0.28
activity coefficient (348.15 K): 4.06 ± 0.28
activity coefficient (358.15 K): 4.08 ± 0.28
activity coefficient (368.15 K): 4.05 ± 0.28

SMILES: CCCC(C)=O [pentan-2-one] + C[N+]1(CCCO)CCOCC1.N#C[N-]C#N
activity coefficient (318.15 K): 7.85 ± 0.54
activity coefficient (328.15 K): 7.96 ± 0.54
activity coefficient (338.15 K): 8.1 ± 0.55
activity coefficient (348.15 K): 8.23 ± 0.56
activity coefficient (358.15 K): 8.33 ± 0.57
activity coefficient (368.15 K): 8.44 ± 0.58

SMILES: CCCC(C)=O [pentan-2-one] + C[n+]1ccn(CCCO)c1.N#CN=C=[N-]
activity coefficient (318.15 K): 4.94 ± 0.34
activity coefficient (328.15 K): 5.14 ± 0.35
activity coefficient (338.15 K): 5.32 ± 0.36
activity coefficient (348.15 K): 5.46 ± 0.37
activity coefficient (358.15 K): 5.67 ± 0.39
activity coefficient (368.15 K): 5.81 ± 0.4
